In series [1] the target is T1, D206A HtxB (Stutzerimonas stutzeri, UniProt O69061, D238A). Put plainly: biochemical.
The conditions of series [2]: Fig. 1; no reference given; cited from earlier work.
The target of series [3] is T1, D206A HtxB. Conditions: 10 mM phosphite, pH range 4-9.
The target in the next series is D206N HtxB (Stutzerimonas stutzeri, UniProt O69061, D238N). Put plainly: biochemical. Format: binding, Pseudomonas stutzeri.
Series [4] deals with T2, WT HtxB (Stutzerimonas stutzeri, UniProt O69061). Conditions: pH 5.
T2 sequence (O69061 34-298): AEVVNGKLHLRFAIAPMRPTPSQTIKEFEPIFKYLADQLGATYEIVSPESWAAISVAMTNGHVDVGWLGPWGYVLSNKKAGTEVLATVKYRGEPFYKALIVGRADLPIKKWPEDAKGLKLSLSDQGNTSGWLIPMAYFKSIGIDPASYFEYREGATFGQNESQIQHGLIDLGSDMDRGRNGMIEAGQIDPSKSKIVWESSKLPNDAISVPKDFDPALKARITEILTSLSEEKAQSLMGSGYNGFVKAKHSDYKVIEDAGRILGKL
Series [5] concerns the target T1, D206A HtxB.
For series [6], the target named is T2, WT HtxB. The series is described as follows: biochemical.
In series [7] the target is T2, WT HtxB. As to conditions: 10 mM phosphite, 1 mM HtxB.
For another series, the target named is HtxB. As to conditions: cited from earlier work.

“Also recorded” adds a separate entry of the source. Read-outs that look alike come from different tables or passages of the source. Bounds are passed on as bounds.

T1 sequence (O69061 34-298 D238A): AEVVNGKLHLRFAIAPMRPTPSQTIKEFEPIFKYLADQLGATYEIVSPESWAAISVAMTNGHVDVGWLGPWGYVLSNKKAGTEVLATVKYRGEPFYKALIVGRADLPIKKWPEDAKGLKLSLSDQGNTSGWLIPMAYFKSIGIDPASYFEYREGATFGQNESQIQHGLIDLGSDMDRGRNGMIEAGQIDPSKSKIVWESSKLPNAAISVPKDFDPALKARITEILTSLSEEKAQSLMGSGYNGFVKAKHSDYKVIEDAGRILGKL
D206N HtxB, sequence (O69061 34-298 D238N limits assumed): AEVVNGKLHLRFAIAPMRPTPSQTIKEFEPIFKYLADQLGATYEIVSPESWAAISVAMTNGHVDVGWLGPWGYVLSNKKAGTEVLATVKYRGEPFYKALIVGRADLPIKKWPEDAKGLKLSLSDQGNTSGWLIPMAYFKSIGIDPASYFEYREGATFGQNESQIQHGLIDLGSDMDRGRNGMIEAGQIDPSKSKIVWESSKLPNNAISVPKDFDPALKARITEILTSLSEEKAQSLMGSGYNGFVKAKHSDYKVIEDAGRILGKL

For orientation: Kd means the constant that tells how readily two partners part at equilibrium. Regarding `O=[PH](O)O` [phosphite], the Kd at D206A HtxB [1] is greater than 100 mM; on D206N HtxB, greater than 100 mM; at D206N HtxB (read-out: Calculated Kd, pH 5), greater than 100 mM; on D206A HtxB [5] (read-out: Calculated Kd, pH 5) it was greater than 100 mM; on WT HtxB [6], 1.74 mM; on HtxB (pH 7.4) it was greater than 10 mM. Moreover, the pKa2 in series [2] is 1.3. Further, the “linebroadening of the 31P peak (in words)” value on D206A HtxB [3] was “did not show significant linebroadening”; on WT HtxB [7] (reducing pH from 9 to 4), “significant linebroadening”. Besides, the “fold lower affinity than hypophosphite at the same pH” value at WT HtxB [4] is reported as “ca. 1000 ×”. Also, the “binding (in words)” value at D206A HtxB [5] (pH 7.4) is “No evidence of D206A HtxB binding”. The “pH of maximal line broadening” value at WT HtxB [7] (pH 9-4) turned out to be 6.

Take phosphate: the “ligand concentration at which protein was not saturated in full titration” value on D206N HtxB (50 mM HEPES pH 7.4) is listed as greater than 100 mM. Moreover, the “binding (in words)” value at D206N HtxB (50 mM HEPES pH 7.4, 100 mM phosphate) is reported as “weakly; also recorded: incredibly weak”; with HtxB, “does not bind”.

Values taken from paper PMC6629693 (Scientific Reports, 2019).
